Test results published in patent publication US20030229451A1, “Methods and systems for analyzing complex biological systems” (priority 2001, published 2003).

System: Saccharomyces cerevisiae wild type strain BY4743
Experiment: AF1 metabolite analysis (GC-MS, LC-MS) of yeast cells treated with antifungal drugs
Assay type: cell-based
Details: for # Compounds perturbed: 2x MIC, two hours

Structure (SMILES): C[C@@H]1[C@H](O)[C@@H](C)/C=C/C=C/C=C/C=C/C=C/C=C/C=C/[C@H](O[C@@H]2O[C@H](C)[C@@H](O)[C@H](N)[C@@H]2O)C[C@@H]2O[C@](O)(C[C@@H](O)C[C@@H](O)[C@H](O)CC[C@@H](O)C[C@@H](O)CC(=O)O[C@H]1C)C[C@H](O)[C@H]2C(=O)O [Amphoteracin B]
- # Compounds perturbed (P < 0.05): 16
- # Compounds perturbed (P < 0.1): 21
- Fold Change (platform GC): −0.933
- Fold Change, TMS mevalonic acid lactone (platform GC): −0.9767
- Fold Change, alanine (platform GC): −0.7773
- Fold Change, asparagine (platform GC): −1
- Fold Change, aspartic acid (platform GC): −0.9743
- Fold Change, campesterol (platform GC): 0
- Fold Change, desmosterol (platform GC): 0
- Fold Change, disaccaride1 (platform GC): −1
- Fold Change, disaccaride2 (platform GC): −0.9977
- Fold Change, disaccaride3 (platform GC): −0.9977
- Fold Change, ergosterol (platform GC): 2.303
- Fold Change, fucosterol (platform GC): −0.6553
- Fold Change, glutamine (platform GC): −0.9116
- Fold Change, glycanopyrose (platform GC): −0.958
- Fold Change, glycerol (platform GC): −0.815
- Fold Change, glycine (platform GC): 0.8807
- Fold Change, hexadecanoic acid (platform GC): −0.2427
- Fold Change, iso citric acid (platform GC): −0.6183
- Fold Change, isoleucine (platform GC): −0.9533
- Fold Change, lanosterol (platform GC): −1
- Fold Change, leucine (platform GC): −0.9443
- Fold Change, lysine (platform GC): −0.3925
- Fold Change, malic acid (platform GC): −0.963
- Fold Change, mevalonic acid lactone (platform GC): −0.1276
- Fold Change, octadecanoic acid (platform GC): 0.21
- Fold Change, oleic acid (platform GC): −0.4593
- Fold Change, ornithine2 (platform GC): −1
- Fold Change, ornithine3 (platform GC): −0.9853
- Fold Change, palmiteliadic acid (platform GC): 0.515
- Fold Change, phenylalanine (platform GC): −0.9797
- Fold Change, phosphate (platform GC): −0.007333
- Fold Change, pyrimidine (platform GC): −0.185
- Fold Change, squalene (platform GC): −0.5745
- Fold Change, tetradecanoic acid (platform GC): 0.07967
- Fold Change, threonine2 (platform GC): −0.8553
- Fold Change, threonine3 (platform GC): −0.8933
- Fold Change, tms glutamine3 (platform GC): −0.8935
- Fold Change, tms lysine4 (platform GC): −0.9783
- Fold Change, tms tyrosine2 (platform GC): −0.3593
- Fold Change, tms tyrosine3 (platform GC): −0.9473
- Fold Change, valine (platform GC): −0.8673
- Fold Change, 2-ketobutyric acid (platform nLC): −0.9992
- Fold Change, 2-ketoglutaric (platform nLC): 8.791
- Fold Change, 3-indolylacetonitri (platform nLC): −0.9998
- Fold Change, 4-methylcatechol (platform nLC): 0
- Fold Change, 4aminobutyrate/dimg (platform nLC): −0.1983
- Fold Change, 5hydroxyLtryptophan (platform nLC): 0
- Fold Change, 6-benzylaminopurine (platform nLC): 0
- Fold Change, DLaminoadipic acid (platform nLC): 1.411
- Fold Change, NacetylDglucosamine (platform nLC): 0
- Fold Change, NacetylLglutamate (platform nLC): −0.1078
- Fold Change, NacetylLornithine (platform nLC): 0
- Fold Change, abscisic acid (platform nLC): 0
- Fold Change, aconitic acid (platform nLC): 0.5426
- Fold Change, adenine (platform nLC): 0
- Fold Change, adenosine (platform nLC): 0
- Fold Change, alanine (platform nLC): 0.1599
- Fold Change, allantoic acid (platform nLC): −0.1456
- Fold Change, allantoin (platform nLC): 3.97
- Fold Change, anthranilic acid (platform nLC): 0
- Fold Change, arginine (platform nLC): −0.4885
- Fold Change, argininosuccinate (platform nLC): 0
- Fold Change, asparagine (platform nLC): 0.1511
- Fold Change, aspartic (platform nLC): 0.2407
- Fold Change, benzoic acid (platform nLC): 0
- Fold Change, biotin (platform nLC): 1.077
- Fold Change, caffeic acid (platform nLC): −0.5882
- Fold Change, catechol (platform nLC): 0
- Fold Change, cinnamic acid (platform nLC): 0
- Fold Change, citricanoic/itaconi. (platform nLC): 0
- Fold Change, citrulline (platform nLC): 1659
- Fold Change, coumaric acid (platform nLC): 0
- Fold Change, cytidine (platform nLC): −0.9986
- Fold Change, cytosine (platform nLC): 0
- Fold Change, decanoic acid (platform nLC): −0.08716
- Fold Change, diaminopimelic acid (platform nLC): 0
- Fold Change, dihydrofolic acid (platform nLC): 0
- Fold Change, estrone (platform nLC): 0
- Fold Change, farnesol (platform nLC): 0
- Fold Change, folic acid (platform nLC): 0
- Fold Change, fumaric/3m2oxobutan (platform nLC): 0.4423
- Fold Change, gallic acid (platform nLC): 0.1622
- Fold Change, gibberellic (platform nLC): 0
- Fold Change, glucosamine6PO4 (platform nLC): −0.9951
- Fold Change, glutamic/acetylseri (platform nLC): 0.1414
- Fold Change, glutamine/lysine (platform nLC): 0.07919
- Fold Change, guanine (platform nLC): 0
- Fold Change, guanosine (platform nLC): 1.131
- Fold Change, histidine (platform nLC): 0
- Fold Change, homogentisic/uric (platform nLC): 0
- Fold Change, hydrocortisone (platform nLC): 0
- Fold Change, hypoxanthine (platform nLC): 0.1655
- Fold Change, indole3pyruvic acid (platform nLC): 0
- Fold Change, inostol/glucos/sorb (platform nLC): −0.5905
- Fold Change, isocitric/citric/qu (platform nLC): 2.549
- Fold Change, jasmonic acid (platform nLC): 0
- Fold Change, kinetin (platform nLC): 0
- Fold Change, lactic acid (platform nLC): −0.02583
- Fold Change, lauric acid (platform nLC): 0.1225
- Fold Change, leucine/isoleucine/ (platform nLC): 0.1319
- Fold Change, luteolin (platform nLC): 0
- Fold Change, malic acid (platform nLC): 0.6212
- Fold Change, malonic acid (platform nLC): 0
- Fold Change, menthol* (platform nLC): −0.07013
- Fold Change, methionine (platform nLC): 0
- Fold Change, nicotinic acid (platform nLC): 0.3131
- Fold Change, nopaline (platform nLC): 0.3342
- Fold Change, oleic acid (platform nLC): 0.689
- Fold Change, ornithine (platform nLC): 2.534
- Fold Change, orotic acid (platform nLC): 8380
- Fold Change, palmitic acid (platform nLC): 0.3979
- Fold Change, phenylalanine (platform nLC): −0.1906
- Fold Change, phenylpyruvic acid (platform nLC): 0
- Fold Change, phosphoenolpyruvate (platform nLC): 0
- Fold Change, pinitol (platform nLC): 0
- Fold Change, pipecolic acid (platform nLC): 0.08112
- Fold Change, porphobilinogen (platform nLC): 0
- Fold Change, proline (platform nLC): 0.4603
- Fold Change, pyridoxine (platform nLC): −0.1294
- Fold Change, retinoic acid (platform nLC): 0
- Fold Change, salicylic/HObenzoic (platform nLC): 0
- Fold Change, selenoDLmethionine (platform nLC): 0.8515
- Fold Change, serine (platform nLC): 0.1091
- Fold Change, shikimic acid (platform nLC): 0
- Fold Change, sinapinic acid (platform nLC): 0
- Fold Change, sorbitol/mannitol (platform nLC): 0.2162
- Fold Change, succinic (platform nLC): 0.8663
- Fold Change, sucrose (platform nLC): 0.4493
- Fold Change, sugar-phosphate (platform nLC): −0.1067
- Fold Change, tetradecanoic acid (platform nLC): −0.07723
- Fold Change, threonine/homoserin (platform nLC): 0.1267
- Fold Change, thymine (platform nLC): 0
- Fold Change, tryptophan (platform nLC): 1.142
- Fold Change, tyrosine (platform nLC): 0.0982
- Fold Change, uracil (platform nLC): 1.511
- Fold Change, uridine (platform nLC): 0.1126
- Fold Change, urocanic acid (platform nLC): 0
- Fold Change, valine (platform nLC): 0.1624
- Fold Change, xanthosineDiH2O (platform nLC): 0
- Fold Change, zeatin (platform nLC): 0
- Fold Change, 4-aminobenzoic acid (platform pLC): 0
- Fold Change, 4-methylcatechol (platform pLC): 0
- Fold Change, 4ambutyrate/dimglyc (platform pLC): 0.01279
- Fold Change, 5hydroxyLtryptophan (platform pLC): 0
- Fold Change, 6benzylaminopurine (platform pLC): 0
- Fold Change, DL-aminoadipic acid (platform pLC): 0.4703
- Fold Change, NacetylDglucosamine (platform pLC): 0
- Fold Change, NacetylLglutamate (platform pLC): 0
- Fold Change, NacetylLornithine (platform pLC): 1.319
- Fold Change, abscisic acid (platform pLC): 0
- Fold Change, adenine (platform pLC): 0.1153
- Fold Change, adenosine (platform pLC): 0
- Fold Change, alanine/sarcosine (platform pLC): 0.2602
- Fold Change, allantoic acid (platform pLC): 0
- Fold Change, anthranilic acid (platform pLC): 0
- Fold Change, arginine (platform pLC): 0.4662
- Fold Change, argininosuccinate (platform pLC): 0
- Fold Change, asparagine (platform pLC): 0.6344
- Fold Change, aspartic acid (platform pLC): 0.3594
- Fold Change, biotin (platform pLC): 0
- Fold Change, caffeine (platform pLC): 0
- Fold Change, citric acid TME (platform pLC): 0
- Fold Change, citrulline (platform pLC): 1.798
- Fold Change, cytidine (platform pLC): 0
- Fold Change, cytosine (platform pLC): 0
- Fold Change, diaminopimelic acid (platform pLC): 0
- Fold Change, dihydrofolic acid (platform pLC): 0
- Fold Change, dipicolinic acid (platform pLC): 0
- Fold Change, folic acid (platform pLC): 0
- Fold Change, glucosamine (platform pLC): 0
- Fold Change, glucosamine6PO4 (platform pLC): 0
- Fold Change, glutamate (platform pLC): 0.4341
- Fold Change, glutamine/lysine (platform pLC): 0.3981
- Fold Change, glutathione (platform pLC): −0.03348
- Fold Change, guanosine (platform pLC): 0.7598
- Fold Change, histidine (platform pLC): 0
- Fold Change, hydrocortisone (platform pLC): 0
- Fold Change, hypoxanthine (platform pLC): 0.2057
- Fold Change, itaconic acid dimes (platform pLC): 0
- Fold Change, kinetin (platform pLC): 0
- Fold Change, leucine/isoleucine/ (platform pLC): 0.2746
- Fold Change, luteolin (platform pLC): 0
- Fold Change, mannitol (platform pLC): 0.4543
- Fold Change, methionine (platform pLC): 0.3299
- Fold Change, mevalonic lactone (platform pLC): −0.4606
- Fold Change, niacinamide (platform pLC): 0
- Fold Change, nicotinic acid (platform pLC): −0.9989
- Fold Change, nopaline (platform pLC): 0
- Fold Change, ornithine (platform pLC): 0.5049
- Fold Change, phenylalanine (platform pLC): 0.4036
- Fold Change, phosphoenolpyruvate (platform pLC): 0
- Fold Change, pipecolic acid (platform pLC): 0.5237
- Fold Change, progesterone (platform pLC): 0
- Fold Change, proline (platform pLC): 0.6707
- Fold Change, pyridoxine (platform pLC): −0.1684
- Fold Change, riboflavin (platform pLC): 0
- Fold Change, selenoDLmethionine (platform pLC): 1.178
- Fold Change, serine (platform pLC): 0.2011
- Fold Change, sugar-phosphate (platform pLC): 0
- Fold Change, thiamine (platform pLC): 0
- Fold Change, threonine/homoserin (platform pLC): 0.3145
- Fold Change, thymine (platform pLC): 0
- Fold Change, tryptophan (platform pLC): 0
- Fold Change, tyrosine (platform pLC): 0.2347
- Fold Change, uric acid (platform pLC): 308
- Fold Change, urocanic acid (platform pLC): 0
- Fold Change, xanthosine(diH2O) (platform pLC): 0
- Fold Change, zeatin (platform pLC): 0
